{
  "source": "patent US8337851B2",
  "about": "“Methods of monitoring the efficacy of anti-CD40 antibodies in treating a subject for a CD40-expressing cancer” (Novartis AG, priority 2005, dated 2012)",
  "key": {"[1]": {"test_system": "CD40-expressing target cells", "experiment": "ADCC activity of anti-CD40 antibodies (Table 1)", "assay_type": "cell-based"}, "CLL cells": {"test_system": "CLL cells", "experiment": "CD40L-induced cytokine secretion by CLL cells (Meso Scale Discovery)", "assay_type": "cell-based, human", "details": "CLL #1; 10 μg/ml, 24 hours; preliminary, n=1", "method": "Cells (1×10^5 cells per well) were cultured in a 96-well plate in the presence or absence of CD40L (CD40 transfected, formaldehyde fixed CHO cells, 2×10^5 per well). […] Production of hIL-6, hIL-8, hIL-10, hTNF-α, hGM-CSF, hIL-1b, hIL-12p70, MCP-1, and MIP-1β was measured by Meso Scale Discovery® multi-array system (Meso Scale Discovery, Gaithersburg, Md.)."}, "normal B cells": {"test_system": "normal B cells", "experiment": "CD40L-induced production of VEGF in normal B cells", "assay_type": "cell-based, human", "excerpt": "In another experiment, CD40L-induced production of VEGF in normal B cells and CLL cells obtained from patients with CLL is examined in a manner similar to that described above."}, "[2]": {"test_system": "B-CLL cells from patients", "experiment": "Western blot of apoptosis markers in B-CLL cells not stimulated with CD40L", "assay_type": "cell-based, human", "details": "10 μg/ml; 1, 4 and 24 hours; no CD40L", "method": "Cells were collected at 1, 4, and 24 hours. Western blot analysis with antibodies to cleaved PARP (apoptotic protein) and XIAP (anti-apoptotic protein) was conducted on cell lysates."}, "[3]": {"test_system": "primary cancer cells from NHL patients", "experiment": "ADCC against primary cancer cells", "assay_type": "cell-based, human", "details": "in vitro", "excerpt": "(§1) 4, 2003, Nov. 26, 2003, and Apr. 27, 2004, and assigned U.S. Patent Application Nos. 60/517,337, 60/525,579, and 60/565,710, respectively, and International Patent Application No. PCT/US2004/037152, also entitled “Antagonist, Anti-CD40 Monoclonal Antibodies and Methods for Their Use,” filed Nov. 4, 2004; the contents of each of which are herein incorporated by reference in their entirety."}, "IM-9 cells": {"test_system": "IM-9 cells", "experiment": "ADCC, Calcein release with human NK cells, IM-9", "assay_type": "cell-based", "details": "NK:target 10 to 1, 4 hours, read-out: ED50 (percent specific lysis)", "method": "Human MM cell lines, KMS-12-BM, IM-9, and ARH-77, were washed 3 times using R2 medium (Pheno red-free RPMI with 2% FBS) and re-suspended in R10 medium (Pheno red-free RPMI with 10% FBS) at the density of 1×10^6/mL. Cells were labeled by adding Calcein AM (final concentration […]) and incubating for 30 minutes at 37° C. in a humidified atmosphere with 5% CO2. Purified human NK cells and Calcein-labeled target cells were mixed in R10 medium at the ratio of 10 to 1 (5×10^4 NK cells and 5×10^3 target cells in […]) and added in U-bottom 96 well plate (Packard's Instrument, Meriden, Conn.). […] 1% NP-40 was added in 3 wells for the maximum cell lysis. Cells were incubated for 4 hours without disturbance at 37° C. in a humidified atmosphere with 5% CO2. The plate was then centrifuged at 300 rpm without brake for 5 minutes. […] supernatant was transferred into a new 96 well plate. The released Calcein in the supernatant was measured in arbitrary fluorescent unit (AFU) at 485 nm excitation and 535 nm emission using Tecan SpectraFluor Plus (Tecan U.S., Inc., Research Triangle, N.C.). The percent of specific lysis was calculated as: 100×(AFU test−AFU spontaneous release)/(AFU maximal release−AFU spontaneous release).\nThe ED50 was determined for each cell line by plotting the log of antibody concentration versus the percent specific lysis (see FIG. 16)."}, "B-CLL cells": {"test_system": "B-CLL cells", "experiment": "p38 MAPK signaling in B-CLL cells, four-hour experiment", "assay_type": "cell-based, human", "details": "4 hours", "method": "In the four-hour experiment, approximately 0.8×10^6 B-CLL cells per well were serum starved in 1% FBS-containing media for 4 hours. […] Cell lysates were collected before and 20 minutes after CD40L stimulation. Western blot analysis with antibodies against specific proteins shown were conducted, and equal loading was evaluated by probing with antibodies to total p38 (t-p38) and β-actin."}, "[4]": {"test_system": "cancer cells from NHL and CLL patients", "experiment": "In vitro CD40 ligand-mediated proliferation of patient cancer cells", "assay_type": "cell-based, human", "excerpt": "as §1"}, "[5]": {"test_system": "IM-9 tumor cells (a human multiple myeloma cell line)", "experiment": "IM-9 multiple myeloma subcutaneous xenograft model", "assay_type": "in vivo, SCID mice", "method": "SCID mice were inoculated subcutaneously with IM-9 tumor cells (a human multiple myeloma cell line expressing both CD40 and CD20) in 50% […]™ at 5×10^6 cells per mouse. […] Alternatively, bortezomib dosing at 1 mg/kg intravenously occurred on days 5, 8, 12, and 15 after tumor implantation. […] Antibody dosing occurred on days 8, 14, and 21 post tumor implantation, while bortezomib dosing occurred on days 8, 11, 14 and 18 post tumor implantation. […] Data were analyzed using the log-rank test."}, "[6]": {"test_system": "IM-9 tumor cells (a human multiple myeloma cell line)", "experiment": "Unstaged orthotopic IM-9 xenograft conditional survival model", "assay_type": "in vivo, SCID mice", "details": "0.1, 1 or 10 mg/kg i.p. once a week from one day after implantation"}, "[7]": {"test_system": "B-CLL cells from patients", "experiment": "Western blot of apoptosis and survival biomarkers in sCD40L-stimulated B-CLL cells", "assay_type": "cell-based, human", "method": "In these experiments, 1.0×10^6 B-CLL cells from patients were stimulated with 1 μg/ml sCD40L (Alexis Corporation, Bingham, Noffinghamshire, UK). […] Cleaved PARP, which is a biomarker of apoptosis, and Bcl-xl, Bcl-2, and cIAP1, which are biomarkers of survival, were detected in cell lysates by Western blot analysis using commercially available antibodies specific for these biomarkers.\nIn these experiments, 1.0×10^6B-CLL cells from patients were stimulated with 1 μg/ml sCD40L (Alexis Corp., Bingham, Nottinghamshire, UK). […] Cells were collected at 22-24 hours. Western blot analysis with antibodies to cleaved PARP, caspase-3, and Bcl-xl were conducted on cell lysates. Antibody against β-actin was used for detecting equal loading and transfer efficiency."}, "[8]": {"details": "patients #4 and #21, 10 μg/ml, 24 hours, 1 μg/ml sCD40L"}},
  "note": "“Also recorded” adds a separate entry of the source.",
  "data": [
    {"substance": "CHIR-12.12: fully human anti-CD40 monoclonal antibody of the IgG1 isotype from hybridoma cell line 153.8E2.D10.D6.12.12 (ATCC PTA-5543)", "values": [
      {"measurement": "killing of CD40-expressing target cells by ADCC", "setting": "[1]", "value": "able to kill CD40-expressing target cells"},
      {"measurement": "inhibition of CD40-ligand-induced MCP-1 secretion", "setting": "CLL cells", "value": 34.8, "unit": "% inhibition"},
      {"measurement": "inhibition of CD40-ligand-induced hGM-CSF secretion", "setting": "CLL cells", "value": 86.5, "unit": "% inhibition"},
      {"measurement": "inhibition of CD40-ligand-induced hIL-8 secretion", "setting": "CLL cells", "value": 91.0, "unit": "% inhibition"},
      {"measurement": "inhibition of CD40-ligand-induced hIL-10 secretion", "setting": "CLL cells", "value": 99.6, "unit": "% inhibition"},
      {"measurement": "inhibition of CD40-ligand-induced hTNF-α secretion", "setting": "CLL cells", "value": 89.6, "unit": "% inhibition"},
      {"measurement": "CD40L-induced production of VEGF", "setting": "normal B cells", "value": "inhibit CD40L-induced production of VEGF"},
      {"measurement": "apoptosis without CD40L stimulation (cleaved PARP, XIAP)", "setting": "[2]", "value": "did not trigger additional apoptosis of B-CLL cells"},
      {"measurement": "killing of primary cancer cells by ADCC", "setting": "[3]", "value": "kill primary cancer cells from NHL patients by ADCC"},
      {"measurement": "EC50", "setting": "IM-9 cells", "value": 5.9, "unit": "pM"},
      {"measurement": "Phospho-IKKα/β activation by CD40L", "setting": "B-CLL cells; 10 μg/mL", "value": "inhibited"},
      {"measurement": "p38 activation by CD40L", "setting": "B-CLL cells; SB203580 30 and 60 μM, CHIR-12.12 10 μg/mL", "value": "fully inhibited"},
      {"measurement": "effect on CD40 ligand-mediated proliferation of cancer cells", "setting": "[4]", "value": "inhibiting in vitro CD40 ligand-mediated proliferation of cancer cells from NHL and CLL patients"},
      {"measurement": "Ki67+ proliferating cells (histology)", "setting": "[5]; 5 days after a single dose", "value": "significantly reduced the number of Ki67^+ proliferating cells"},
      {"measurement": "cleaved caspase 3 and cleaved PARP (histology)", "setting": "[5]; 5 days after a single dose", "value": "increased the level of cleaved caspase 3 and cleaved PARP"},
      {"measurement": "tumor growth", "setting": "[5]; first study, CHIR-12.12 1 and 10 mg/kg i.p. days 5, 12, 18, bortezomib 1 mg/kg i.v. days 5, 8, 12, 15", "value": "inhibited tumor growth at 15, 18, and 21 days post tumor implantation"},
      {"measurement": "tumor volume, CHIR-12.12 in combination with bortezomib", "setting": "[5]; second study, CHIR-12.12 1 mg/kg i.p. plus bortezomib 1 mg/kg i.v.", "value": "the efficacy observed was additive; also recorded: a tumor volume reduction was observed on days 13, 16, 20, 23, and 26"},
      {"measurement": "survival of tumor-bearing mice", "setting": "[6]", "value": "prolonged the survival of tumor-bearing mice"},
      {"measurement": "cleaved PARP, caspase-3 and Bcl-xl, dose response (Western blot)", "setting": "[7]; 0-20 μg/ml, 22-24 hours, 1 μg/ml sCD40L", "value": "induction of cleaved PARP and caspase-3 as well as reduction of Bcl-xl in a dose-dependent manner"},
      {"measurement": "lowest dose with effect on cleaved PARP, caspase-3 and Bcl-xl", "setting": "[7]; 22-24 hours, 1 μg/ml sCD40L", "value": "≥ 0.01", "unit": "µg/mL"},
      {"measurement": "XIAP and Bcl-2 (Western blot)", "setting": "[7]; patient #30, vs control IgG", "value": "reduced the expression of XIAP and Bcl-2"},
      {"measurement": "cleaved PARP (Western blot)", "setting": "[7]; patient #30, vs control IgG", "value": "induced the expression of cleaved PARP"},
      {"measurement": "cleaved PARP (Western blot)", "setting": "[7]; patient #31, vs control IgG", "value": "induced the expression of cleaved PARP"},
      {"measurement": "cyclin D1 and Bcl-xl (Western blot)", "setting": "[7]; patient #31, vs control IgG", "value": "reduced the expression of cyclin D1 and Bcl-xl"},
      {"measurement": "Bcl-2 and TRAIL level (Western blot)", "setting": "[7]; [8]", "value": "no changes of Bcl-2 and TRAIL level"},
      {"measurement": "Bcl-xl, XIAP and cIAP1 (Western blot)", "setting": "[7]; [8]", "value": "reduction of Bcl-xl, XIAP and cIAP1"},
      {"measurement": "cleaved PARP (Western blot)", "setting": "[7]; patients #4 and #21, 10 μg/ml, 24 hours, 1 μg/ml sCD40L, vs control IgG", "value": "induction of cleaved PARP"}
    ]}
  ]
}
